Measurements from patent publication US8993585B2, “Cyclic amine substituted pyrimidinediamines as PKC inhibitors” (Rigel Pharmaceuticals, Inc., priority 2007, dated 2015).
pIC50: −log10 of the molar value.

Legend:
PKC theta = target: T1, PKC theta (Homo sapiens, UniProt Q04759); assay: PKC assay, fluorescence polarization (Example 2), PKC theta; assay type: biochemical; conditions: 5 μM ATP
T1 construct: purchased Upstate Biotechnologies, Temecula, CA 14-444
Method: The inhibition of PKC activity was measured by monitoring the production of phosphorylated peptide by fluorescence polarization at different concentrations of the inhibitor. Reactions were carried out in 96-well plate format with a total volume of 20 μL containing 20 mM HEPES, pH 7.4, 5 mM MgCl2, 0.2 mM CaCl2, 1 mM DTT, 0.02% Brij-35, 0.1 mg/mL phosphatidylserine, 0.02 mg/mL dioleoyl-sn-glycerol and 5 μM each of ATP and the peptide substrate. Compounds were first diluted serially in DMSO and then transferred to a solution containing the above concentrations of HEPES, MgCl2, CaCl2, DTT, and Brij-35 to yield 5× compound solutions in 2% DMSO, which was then added to the reaction solution. Reactions were initiated by the addition of PKC at a typical concentration as described in Table VI, and then allowed to incubate at room temperature for 20 min. At the end of this time, a combination of quench (EDTA) and detection (peptide tracer and antibody) reagents was added using the protocol of Invitrogen P2748.

Human primary T cells = assay: IL-2 ELISA, Human Primary T Cell, Anti-CD3+CD28+ (Example 3); assay type: cell-based; conditions: anti-CD3+CD28 stimulation
Summary of the method: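 Human primary T cells, 100,000 per well, were pre-incubated with compound in Yssel's medium for 1 h at 37 °C. The counter-assay used 0.5 ng/ml PMA with 0.1 uM ionomycin final.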

T1 sequence (Q04759 whole entry): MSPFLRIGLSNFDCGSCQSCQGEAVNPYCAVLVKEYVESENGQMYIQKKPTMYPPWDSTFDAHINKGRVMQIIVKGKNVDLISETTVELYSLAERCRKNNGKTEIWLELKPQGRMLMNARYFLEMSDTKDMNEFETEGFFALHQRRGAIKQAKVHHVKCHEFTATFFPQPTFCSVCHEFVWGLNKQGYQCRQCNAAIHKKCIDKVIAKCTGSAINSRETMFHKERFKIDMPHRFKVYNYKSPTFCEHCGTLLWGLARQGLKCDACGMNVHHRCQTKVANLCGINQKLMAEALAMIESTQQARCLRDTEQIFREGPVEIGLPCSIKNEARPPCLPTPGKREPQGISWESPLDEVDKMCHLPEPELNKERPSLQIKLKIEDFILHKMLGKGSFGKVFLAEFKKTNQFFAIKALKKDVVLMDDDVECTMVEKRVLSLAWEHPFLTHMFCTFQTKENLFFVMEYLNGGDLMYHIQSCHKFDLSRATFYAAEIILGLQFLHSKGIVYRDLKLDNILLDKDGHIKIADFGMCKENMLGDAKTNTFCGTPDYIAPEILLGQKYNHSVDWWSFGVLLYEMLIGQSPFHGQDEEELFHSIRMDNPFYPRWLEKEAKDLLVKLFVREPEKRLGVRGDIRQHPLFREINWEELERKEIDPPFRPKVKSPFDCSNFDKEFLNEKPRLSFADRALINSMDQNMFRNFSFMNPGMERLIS

| Compound | pIC50 (PKC theta) | pIC50 (Human primary T cells; Homo sapiens, T-cell, 24 h) | pIC50 (Human primary T cells; 24 hours) |
| --- | --- | --- | --- |
| Cc1cc(Nc2ncc(F)c(NC3CC(C)(C)N(C)C(C)(C)C3)n2)cnc1N1CCN(C)CC1 [Compound I-7] | 7.80 | 6.28 | – |
| Cc1cc(C)cc(Nc2ncc(F)c(NC3CC(C)(C)N(C)C(C)(C)C3)n2)c1 [Compound I-12] | 7.66 | 6.47 | – |
| Cc1cc(Nc2ncc(F)c(NC3CC(C)(C)N(C)C(C)(C)C3)n2)ccc1N1CCN(C)CC1 [Compound I-4] | 7.52 | 6.60 | – |
| CN1CCN(c2ccc(Nc3ncc(F)c(NC4CC(C)(C)N(C)C(C)(C)C4)n3)cc2Cl)CC1 [Compound I-3] | 8.30 | 6.97 | – |
| CN1C(C)(C)CC(Nc2nc(Nc3ccc(N4CCN(S(=O)(=O)C5CC5)CC4)c(Cl)c3)ncc2F)CC1(C)C [Compound I-174] | 7.97 | 6.57 | – |
| Cc1cc(N2CCN(C)CC2)ncc1Nc1ncc(F)c(NC2CC(C)(C)N(C)C(C)(C)C2)n1 [Compound I-8] | 6.67 | 5.24 | – |
| CN1C(C)(C)CC(Nc2nc(Nc3ccc(C#N)c(Cl)c3)ncc2Cl)CC1(C)C [Compound I-35] | 7.62 | 6.84 | – |
| CC1(C)CC(Nc2nc(Nc3cccc(C#N)c3)ncc2F)CC(C)(C)N1 [Compound I-70] | 7.41 | 6.29 | – |
| CN1C(C)(C)CC(Nc2nc(Nc3ccc(F)c(Br)c3)ncc2F)CC1(C)C [Compound I-158] | 7.69 | 6.31 | – |
| CN1C(C)(C)CC(Nc2nc(Nc3ccc(N4CCN(S(C)(=O)=O)CC4)c(C#N)c3)ncc2F)CC1(C)C [Compound I-164] | 8.67 | 6.65 | – |
| CN1C(C)(C)CC(Nc2nc(Nc3ccc(-c4cccnc4)cc3)ncc2F)CC1(C)C [Compound I-124] | 7.25 | 6.27 | – |
| CN1CCN(c2ccc(Nc3ncc(F)c(NC4CC(C)(C)N(C)C(C)(C)C4)n3)cc2)CC1 [Compound I-1] | 6.65 | 5.52 | – |
| Cc1ccc(Nc2ncc(F)c(NC3CC(C)(C)N(C)C(C)(C)C3)n2)cc1S(N)(=O)=O [Compound I-11] | 7.28 | 5.80 | – |
| CCN1CCN(c2ccc(Nc3ncc(F)c(NC4CC(C)(C)N(C)C(C)(C)C4)n3)cn2)CC1 [Compound I-6] | 6.74 | 5.77 | – |
| CN1C(C)(C)CC(Nc2nc(Nc3ccc(-c4ccncc4)cc3)ncc2F)CC1(C)C [Compound I-123] | 7.09 | 6.06 | – |
| CN1C(C)(C)CC(Nc2nc(Nc3ccc(N4CCN(S(C)(=O)=O)CC4)c(C(F)(F)F)c3)ncc2C#N)CC1(C)C [Compound I-95] | 7.37 | 6.46 | – |
| CN1CCN(c2ccc(Nc3ncc(F)c(NC4CC(C)(C)N(C)C(C)(C)C4)n3)cc2C(F)(F)F)CC1 [Compound I-5] | 8.30 | 7.07 | – |
| COc1ccc(Nc2ncc(Cl)c(NC3CC(C)(C)N(C)C(C)(C)C3)n2)cc1Cl [Compound I-31] | 8.30 | 7.04 | – |

| Compound | pIC50 (PKC theta) | pIC50 (Human primary T cells; Homo sapiens, T-cell, 24 h) | pIC50 (Human primary T cells; 24 hours) |
| --- | --- | --- | --- |
| CN1CCN(c2ccc(Nc3ncc(F)c(NC4CC(C)(C)N(C)C(C)(C)C4)n3)cc2F)CC1 [Compound I-39] | 7.82 | 6.03 | – |
| CN1CCN(c2ccc(Nc3ncc(C(F)(F)F)c(NC4CC(C)(C)N(C)C(C)(C)C4)n3)cc2Cl)CC1 [Compound I-34] | 8.40 | 6.91 | – |
| CN1C(C)(C)CC(Nc2nc(Nc3cccc(C#N)c3)ncc2F)CC1(C)C [Compound I-26] | 8.52 | 7.23 | – |
| CN1C(C)(C)CC(Nc2nc(Nc3ccc(-c4cccnc4)c(Cl)c3)ncc2F)CC1(C)C [Compound I-154] | 8.42 | 6.58 | – |
| CN1C(C)(C)CC(Nc2nc(Nc3ccc(-c4ccoc4)cc3)ncc2F)CC1(C)C [Compound I-125] | 6.96 | 6.05 | – |
| COc1ccc(Nc2ncc(F)c(NC3CC(C)(C)N(C)C(C)(C)C3)n2)cc1Br [Compound I-159] | 8.14 | 6.53 | – |
| CN1C(C)(C)CC(Nc2nc(Nc3ccc(-c4ccncc4)c(F)c3)ncc2F)CC1(C)C [Compound I-115] | 7.66 | 6.54 | – |
| CN1C(C)(C)CC(Nc2nc(Nc3cccc(-c4cc5ccccc5s4)c3)ncc2F)CC1(C)C [Compound I-106] | 6.62 | 6.28 | – |
| CN1CCN(c2ccc(Nc3ncc(Cl)c(NC4CC(C)(C)N(C)C(C)(C)C4)n3)cc2C#N)CC1 [Compound I-179] | 8.83 | 7.04 | – |
| CN1C(C)(C)CC(Nc2nc(Nc3ccc(Br)c(C(F)(F)F)c3)ncc2F)CC1(C)C [Compound I-109] | 6.97 | 6.46 | – |
| CN1C(C)(C)CC(Nc2nc(Nc3ccc(-c4cnn(C)c4)c(C(F)(F)F)c3)ncc2F)CC1(C)C [Compound I-126] | 7.92 | 6.61 | – |
| Cc1cc(Nc2ncc(F)c(NC3CC(C)(C)N(C)C(C)(C)C3)n2)ccc1-c1ccncc1 [Compound I-120] | 7.53 | 6.44 | – |
| CN1C(C)(C)CC(Nc2nc(Nc3ccc(N4CCN(S(C)(=O)=O)CC4)c(C#N)c3)ncc2Cl)CC1(C)C [Compound I-175] | 8.15 | 6.69 | – |
| CN1C(C)(C)CC(Nc2nc(Nc3cc(Br)cc(C(F)(F)F)c3)ncc2F)CC1(C)C [Compound I-162] | 7.16 | 6.26 | – |
| CN1C(C)(C)CC(Nc2nc(Nc3ccc(Br)c(Cl)c3)ncc2F)CC1(C)C [Compound I-153] | 7.99 | 6.68 | – |
| CN1CCN(c2cccc(Nc3ncc(F)c(NC4CC(C)(C)N(C)C(C)(C)C4)n3)c2)CC1 [Compound I-2] | 6.39 | 5.81 | – |
| CN1C(C)(C)CC(Nc2nc(Nc3cccc(S(N)(=O)=O)c3)ncc2F)CC1(C)C [Compound I-10] | 7.15 | 5.73 | – |

More lines, now with the values ahead:

| pIC50 (PKC theta) | pIC50 (Human primary T cells; Homo sapiens, T-cell, 24 h) | pIC50 (Human primary T cells; 24 hours) | Compound |
| --- | --- | --- | --- |
| 6.89 | 5.97 | – | CN1CCC(Nc2nc(Nc3cccc(C#N)c3)ncc2F)CC1 [III-2, N2-(3-Cyano)phenyl-5-fluoro-N4-(1-methylpiperidin-4-yl)-2,4-pyrimidinediamine] |
| 8.62 | – | 6.92 | CN1CCN(c2ccc(Nc3ncc(F)c(NC4CC(C)(C)N(C)C(C)(C)C4)n3)cc2OC(F)F)CC1 [Compound I-236] |
| 8.12 | 6.52 | – | CN1C(C)(C)CC(Nc2nc(Nc3ccc(-c4ccncc4)c(C#N)c3)ncc2F)CC1(C)C [Compound I-185] |
| 7.04 | 6.37 | – | CN1C(C)(C)CC(Nc2nc(Nc3cc(-c4ccoc4)cc(C(F)(F)F)c3)ncc2F)CC1(C)C [Compound I-203] |
| 7.86 | 6.87 | – | CCCN1CCN(c2ccc(Nc3ncc(F)c(NC4CC(C)(C)N(C)C(C)(C)C4)n3)cc2Cl)CC1 [Compound I-249] |
| 7.34 | 6.54 | – | CN1C(C)(C)CC(Nc2nc(Nc3ccc(-c4ccoc4)c(C(F)(F)F)c3)ncc2F)CC1(C)C [Compound I-328] |
| 7.44 | 6.52 | – | Cc1ccc(Nc2ncc(F)c(NC3CC(C)(C)N(C)C(C)(C)C3)n2)cc1Cl [Compound I-332] |
| 8.40 | 6.94 | – | CN1C(C)(C)CC(Nc2nc(Nc3ccc(N4CCN(S(C)(=O)=O)CC4)c(OC(F)F)c3)ncc2F)CC1(C)C [Compound I-238] |
| 7.42 | 6.25 | – | CCN1C(=O)CCc2cc(Nc3ncc(F)c(NC4CC(C)(C)N(C)C(C)(C)C4)n3)ccc21 [II-5] |
| 8.71 | 6.76 | – | CN1C(C)(C)CC(Nc2nc(Nc3ccc(N4CCOCC4)c(C#N)c3)ncc2F)CC1(C)C [Compound I-198] |
| 6.60 | 6.51 | – | CN1C(C)(C)CC(Nc2nc(Nc3ccc(C(F)(F)F)c(Cl)c3)ncc2F)CC1(C)C [Compound I-337] |
| 5.98 | 5.83 | – | CC1CN(c2cc(Nc3ncc(F)c(NC4CC(C)(C)N(C)C(C)(C)C4)n3)ccc2Cl)CC(C)N1C (centres unmarked) [Compound I-250] |
| 7.28 | 6.33 | – | CN1C(C)(C)CC(Nc2nc(Nc3ccc(OC(F)(F)F)c(-c4cccnc4)c3)ncc2F)CC1(C)C [Compound I-208] |
| 8.60 | 6.30 | – | CC1(C)CC(Nc2nc(Nc3ccc4c(c3)oc(=O)n4CC3CC3)ncc2C#N)CC(C)(C)N1 [II-97] |
| 7.08 | 6.36 | – | CN1C(C)(C)CC(Nc2nc(Nc3cc(-c4cnn(C)c4)cc(C(F)(F)F)c3)ncc2F)CC1(C)C [Compound I-204] |
| 7.87 | 6.65 | – | CN1C(C)(C)CC(Nc2nc(Nc3cccc(OC(F)F)c3)ncc2F)CC1(C)C [Compound I-234] |
| 7.50 | 6.73 | – | CN1C(C)(C)CC(Nc2nc(Nc3ccc(NC(=O)c4ccco4)c(Cl)c3)ncc2F)CC1(C)C [Compound I-339] |
| 7.27 | 6.31 | – | COc1ccc(Nc2ncc(F)c(NC3CC(C)(C)NC(C)(C)C3)n2)cc1Cl [Compound I-254] |
| 7.74 | 6.21 | – | CN1CCC(Nc2nc(Nc3ccc(N4CCN(C)CC4)c(C(F)(F)F)c3)ncc2F)CC1 [III-3, 5-Fluoro-N2-[4-(4-methylpiperazino)-3-trifluoromethyl]phenyl-N4-(1-methylpiperidin-4-yl)-2,4-pyrimidinediamine] |
| 7.27 | 6.32 | – | Cc1ccc2cc(Nc3ncc(F)c(NC4CC(C)(C)N(C)C(C)(C)C4)n3)ccc2n1 [II-7] |
